Among the test systems are SK-OV-3 ovarian; NCI-H460 lung; UACC-257 melanoma; KM12 colon; HOP-92 NSCLC; SF-268 CNS; HL-60(TB) leukemia; A549 NSCLC; MALME-3M melanoma; UO-31 renal.
Common to all, as to experiment: NCI anticancer screen, dose series, 48 h

Experimental findings from PubChem BioAssay (NCI) are described below.

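Test compounds were applied to cells in 96-well plates for 48 hours at 5 doses. GI50 marks 50% less growth. TGI: concentration producing complete growth inhibition.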 Some results are limits rather than exact numbers.

Take `Cc1nnc(N/N=C(/C(=O)C(C#N)c2ccccc2)C(C#N)c2ccccc2)n1N` (stereo not given): the TGI is > 100 µM with SK-OV-3 ovarian; 12.6 µM in the assay on NCI-H460 lung; 13.2 µM in the assay with UACC-257 melanoma; > 55.4 µM in the assay with KM12 colon; > 100 µM in the assay with HOP-92 NSCLC; > 61.3 µM in the assay on SF-268 CNS. Moreover, the TGI in the assay on HL-60(TB) leukemia is 57.8 µM; in the assay on A549 NSCLC it was 49.3 µM; in the assay on MALME-3M melanoma, 9.29 µM; in the assay with UO-31 renal it was > 56.5 µM.

For `COc1c(Br)cc(Br)c(OC)c1-c1[nH]c(Br)c(Br)c1Br`, the TGI with SK-OV-3 ovarian amounted to 28.1 µM; in the assay with NCI-H460 lung it was 32.8 µM; with UACC-257 melanoma, 19.2 µM; with KM12 colon, 21.1 µM; in the assay with HOP-92 NSCLC, 7.79 µM; with SF-268 CNS it was 15.1 µM. The TGI came out at 25.1 µM in the assay on HL-60(TB) leukemia, 19.2 µM in the assay with A549 NSCLC, 16.6 µM in the assay with MALME-3M melanoma and 8.73 µM with UO-31 renal.

For the compound `COc1ccc(/C=C2/CCc3cc4ccc(OC)cc4[o+]c32)c(O)c1`, the GI50 in the assay on SK-OV-3 ovarian is 12.3 µM; in the assay on NCI-H460 lung it was 2.8 µM; with UACC-257 melanoma, 15.8 µM; with KM12 colon, 2.65 µM; with HOP-92 NSCLC it was 11.7 µM; in the assay with SF-268 CNS it was 2.8 µM. For the same compound, the GI50 with HL-60(TB) leukemia is 4.96 µM; in the assay on A549 NSCLC, 18.5 µM; in the assay with MALME-3M melanoma it was 3.08 µM; with UO-31 renal, 2.39 µM. In addition, the TGI in the assay on SK-OV-3 ovarian was determined as 25.3 µM; in the assay with NCI-H460 lung, 9.74 µM; in the assay with UACC-257 melanoma, 32 µM; in the assay with KM12 colon, 7.44 µM; in the assay on HOP-92 NSCLC, 29.1 µM; in the assay on SF-268 CNS, 9.83 µM. For the same compound, the TGI in the assay on HL-60(TB) leukemia came to 61.4 µM; with A549 NSCLC it was 41.6 µM; with MALME-3M melanoma it was 11.7 µM; in the assay on UO-31 renal, 8.04 µM.

With `OB1OCc2cc(/C=C/c3cccc(C(F)(F)F)c3)ccc21`, the GI50 with SK-OV-3 ovarian was 2.9 µM; in the assay with NCI-H460 lung, 0.48 µM; with UACC-257 melanoma it was 4.31 µM; in the assay with KM12 colon, 2.26 µM; in the assay on HOP-92 NSCLC it was 0.712 µM; with SF-268 CNS it was 0.564 µM. Besides, the GI50 in the assay on HL-60(TB) leukemia was 0.298 µM; with A549 NSCLC, 0.695 µM; in the assay on MALME-3M melanoma, 7.65 µM; in the assay on UO-31 renal, 0.551 µM. Also, the TGI in the assay with SK-OV-3 ovarian was 63.5 µM; in the assay on NCI-H460 lung it was 22.8 µM; with UACC-257 melanoma, > 100 µM; in the assay with KM12 colon, > 100 µM; in the assay with HOP-92 NSCLC it was 10.7 µM; with SF-268 CNS, 48.1 µM. The TGI is 5.38 µM in the assay with HL-60(TB) leukemia, 19.6 µM with A549 NSCLC, 54.3 µM in the assay with MALME-3M melanoma and 20.3 µM in the assay with UO-31 renal.

Take `CCOC(=O)c1ccc(N[C@@H]2c3cc4c(cc3C(C3=CC(=O)C(=O)C(OC)=C3)[C@H]3C(=O)OCC32)OCO4)cc1` (stereo not given in full): the TGI in the assay on SK-OV-3 ovarian was 6.77 µM; with NCI-H460 lung, 5.84 µM; in the assay with UACC-257 melanoma, > 82.6 µM; in the assay on KM12 colon it was > 33.2 µM; in the assay with HOP-92 NSCLC it was 25 µM; with SF-268 CNS, 10.4 µM. The TGI with HL-60(TB) leukemia is > 19.7 µM; with A549 NSCLC, 5.67 µM; in the assay on MALME-3M melanoma, 11.2 µM; in the assay with UO-31 renal, 9.43 µM.

For the compound `CNC(SC)=C1C(=O)OC(C)(C)OC1=O`, the TGI with SK-OV-3 ovarian, with NCI-H460 lung, with UACC-257 melanoma, in the assay with KM12 colon, with HOP-92 NSCLC and in the assay on SF-268 CNS was > 100 µM each time. For the same compound, the TGI in the assay on HL-60(TB) leukemia, in the assay with A549 NSCLC, in the assay on MALME-3M melanoma and in the assay with UO-31 renal was > 100 µM in each case.

On to `CC(=O)NNc1nc(C)c(C(=O)NNC(=O)C(=O)Nc2nc3ccc([N+](=O)[O-])cc3s2)s1`, for which the TGI in the assay with SK-OV-3 ovarian, in the assay on NCI-H460 lung, in the assay on UACC-257 melanoma, in the assay with KM12 colon, in the assay on HOP-92 NSCLC and in the assay with SF-268 CNS was > 100 µM in each case. In addition, the TGI with HL-60(TB) leukemia was 79.9 µM; with A549 NSCLC, > 100 µM; in the assay on MALME-3M melanoma it was > 100 µM; with UO-31 renal, > 100 µM.

With `O=C(/C=C/c1ccccc1)CC(c1ccccc1)N1CCOCC1` (stereo not given), the GI50 in the assay on SK-OV-3 ovarian is 14.4 µM; with NCI-H460 lung, 15.5 µM; in the assay with UACC-257 melanoma, 5.63 µM; in the assay on KM12 colon, 1.99 µM; with HOP-92 NSCLC it was 3.59 µM; with SF-268 CNS, 5.07 µM. In addition, the GI50 is 3.68 µM with HL-60(TB) leukemia, 11.7 µM in the assay on A549 NSCLC, 4.4 µM with MALME-3M melanoma and 1.58 µM in the assay with UO-31 renal. The TGI in the assay with SK-OV-3 ovarian worked out at 30.7 µM; in the assay with NCI-H460 lung, 33.2 µM; in the assay on UACC-257 melanoma, 18.8 µM; in the assay on KM12 colon, 3.72 µM; in the assay with HOP-92 NSCLC, 18.3 µM; in the assay on SF-268 CNS it was 19.3 µM. Also, the TGI in the assay with HL-60(TB) leukemia was 18.1 µM; with A549 NSCLC it was 29 µM; with MALME-3M melanoma, 19.9 µM; with UO-31 renal, 3.24 µM.

As to `NC(=O)/C=C/C(=O)O`, the TGI with SK-OV-3 ovarian, in the assay with NCI-H460 lung, with UACC-257 melanoma, in the assay on KM12 colon, in the assay with HOP-92 NSCLC and in the assay with SF-268 CNS was > 5000 µM in each case. Also, the TGI in the assay with HL-60(TB) leukemia, in the assay with A549 NSCLC, in the assay with MALME-3M melanoma and in the assay with UO-31 renal was > 5000 µM in each case.

`Cc1c(C(=O)CSc2nc3ccccc3c(=O)n2-c2ccccc2)c(=O)n(-c2ccccc2)n1C`: the TGI with SK-OV-3 ovarian is 41.4 µM; with NCI-H460 lung, > 100 µM; in the assay on UACC-257 melanoma it was > 100 µM; in the assay with KM12 colon, > 100 µM; in the assay on HOP-92 NSCLC, 95.8 µM; in the assay with SF-268 CNS, > 100 µM. Also, the TGI with HL-60(TB) leukemia was > 100 µM; in the assay with A549 NSCLC it was > 100 µM; in the assay with MALME-3M melanoma, > 100 µM; in the assay with UO-31 renal, 79.4 µM.
